Laboratory results: PubChem BioAssay AID1053200 (The Scripps Research Institute Molecular Screening Center, 2014)
The source made the active and inactive calls.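 Rule for the calls: active = inhibition at or above 50% when tested at 10 µM; inactive = inhibition below 50% at 10 µM.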

Biological target: Methionine--tRNA ligase, mitochondrial (Homo sapiens) (UniProt Q96GW9)
Assay: human mitochondrial MetRS inhibition, late-stage follow-up, selectivity assay for T. brucei MetRS inhibitor project, biochemical, radioactivity, round 2 (AID 1053200)
Details: recombinant human mitochondrial MetRS, [3H]Met aminoacylation, stronger effect = higher value

Chain of Methionine--tRNA ligase, mitochondrial (Homo sapiens) (Q96GW9 whole entry, looked up): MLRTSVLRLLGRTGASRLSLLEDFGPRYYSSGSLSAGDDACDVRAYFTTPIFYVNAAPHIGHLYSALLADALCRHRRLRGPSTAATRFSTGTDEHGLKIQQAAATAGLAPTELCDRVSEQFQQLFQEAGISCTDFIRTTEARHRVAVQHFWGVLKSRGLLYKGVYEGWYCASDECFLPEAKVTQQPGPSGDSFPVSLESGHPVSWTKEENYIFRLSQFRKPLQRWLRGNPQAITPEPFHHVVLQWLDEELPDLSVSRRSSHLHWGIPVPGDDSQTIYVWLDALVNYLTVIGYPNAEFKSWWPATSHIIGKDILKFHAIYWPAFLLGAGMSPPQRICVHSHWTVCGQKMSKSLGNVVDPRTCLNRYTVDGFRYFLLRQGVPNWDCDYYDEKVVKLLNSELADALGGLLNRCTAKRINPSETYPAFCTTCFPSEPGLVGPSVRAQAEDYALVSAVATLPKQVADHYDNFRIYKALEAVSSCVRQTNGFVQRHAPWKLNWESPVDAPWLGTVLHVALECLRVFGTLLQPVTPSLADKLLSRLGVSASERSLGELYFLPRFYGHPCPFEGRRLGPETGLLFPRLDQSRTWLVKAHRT

SMILES | inhibition (at 10 µM) | inhibition (inhibition, at 1 µM)
CCN(CC)C(=O)C(=O)c1cn(CC(=O)Nc2cc(C)cc(C(F)(F)F)c2)c2ccccc12 | 20.9% (inactive) | -1.02%
CCN(CC)C(=O)C(=O)c1cn(CC(=O)Nc2cc(Oc3ccccc3)cc(C(F)(F)F)c2)c2ccccc12 | 21.1% (inactive) | -2.76%
CCN(CC)C(=O)C(=O)c1cn(CC(=O)Nc2cccc(C(F)(F)F)c2)c2cc(OC)ccc12 | -1.37% (inactive) | -8.82%
CCN(CC)C(=O)C(=O)c1cn(CC(=O)Nc2cc(C(F)(F)F)cc(C(F)(F)F)c2)c2ccccc12 | 9.77% (inactive) | -3.97%
CCN(CC)C(=O)C(=O)c1cn(CC(=O)Nc2cc(Cl)cc(C(F)(F)F)c2)c2ccccc12 | 17.4% (inactive) | -6.78%
CCN(CC)C(=O)C(=O)c1cn(CC(=O)Nc2cc(Br)cc(C(F)(F)F)c2)c2ccccc12 | 12.8% (inactive) | -17.3%
